Measured values: patent US4764521A, “Leukotriene antagonists and a method of use there as” (Eli Lilly and Company, priority 1986, dated 1988)

Tests used:
[1] = tested on: LTD4 evoked ileal contractions (guinea pig ileum); assay: Inhibition of LTD4 evoked contractions in isolated ileum (single submaximal LTD4 response, five minute drug exposure); type: cell-based, Male, Hartley guinea pigs; conditions: Cavia porcellus, read-out: Percent inhibition of LTD4 evoked ileal contractions; for inhibition at 1 µM: Compound concentration 1 × 10^-6 M; for inhibition at 3 µM: Compound concentration 3 × 10^-6 M; for inhibition at 0.1 µM: Compound concentration 1 × 10^-7 M; for inhibition at 0.3 µM: Compound concentration 3 × 10^-7 M
Description: (§1) A section of terminal ileum was removed, the lumen cleaned, and the tissue divided into 2.5 cm. segments. The ilea were mounted in 10 ml. tissue baths containing Krebs-bicarbonate solution of the following composition in mmoles/ liter: KCl, 4.6; CaCl2 ·2H2 O, 1.2; KH2 PO4, 1.2; MgSO4 ·7H2 O, 1.2; NaCl, 118.2; NaHCO3, 24.8; and dextrose, 10.0. The bath fluid was maintained at 37° C. and aerated with 95 percent oxygen and 5 percent CO2. In addition, the buffer contained 1×10^- 6M atropine to reduce ileal spontaneous activity. Isometric measurements were made with a Grass FTO3C force-displacement transducer and recorded on a Grass polygraph as change in grams of force. A passive force of 0.5 g. was applied to the tissues. After an appropriate equilibration period, single submaximal control responses to pure LTD4 were obtained. Following a five minute exposure of the ileum to an experimental drug, the control concentration of LTD4 was added to the tissue bath. The response of the ileum to LTD4 in the presence of the drug was compared to the response in the absence of the drug. For some of the drugs in this series a more detailed analysis of LTD4 antagonism was made. In these experiments, cumulative concentration-response curves were obtained to LTD4 in guinea pig ileum and trachea. This was followed by a 30 minute incubation with various concentrations of the experimental drug. The concentration response curve to LTD4 was then repeated in the presence of the antagonist. Only one concentration of antagonist was used on a single tissue. KB values were calculated by the method of Furchgott [Ann. N.Y. Acad. Sci., 139, 553 (1967)]using the following equation. [formula]

[2] = biological target: T1, LTD4 (guinea pig ileum and trachea) (Cavia porcellus, UniProt Q2NNR5); assay: LTD4 antagonism, cumulative concentration-response curves to LTD4 (KB / pA2, Schild); type: cell-based; conditions: negative log of KB, 30 minute incubation
T1 construct: A section of terminal ileum was removed, the lumen cleaned, and the tissue divided into 2.5 cm. segments; from tissue; host or cells: isolated ileum and trachea of guinea pig (ileum: male Hartley, terminal ileum)
T1 sequence (Q2NNR5 1-340): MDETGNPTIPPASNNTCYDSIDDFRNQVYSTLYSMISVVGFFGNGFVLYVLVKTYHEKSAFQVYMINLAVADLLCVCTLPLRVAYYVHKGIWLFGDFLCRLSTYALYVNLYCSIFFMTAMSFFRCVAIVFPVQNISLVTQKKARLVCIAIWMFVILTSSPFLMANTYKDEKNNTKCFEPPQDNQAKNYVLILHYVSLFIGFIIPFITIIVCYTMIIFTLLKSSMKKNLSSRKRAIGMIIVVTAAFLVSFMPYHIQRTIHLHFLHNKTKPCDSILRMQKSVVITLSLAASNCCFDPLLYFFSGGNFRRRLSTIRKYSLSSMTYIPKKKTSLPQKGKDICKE
Description: as §1, with “Male, Hartley guinea pigs weighing 200-450 grams were killed by decapitation. A section” for “A section”
Dose ratio refers to the concentration of agonist required to elicit 50 percent of the maximal response (ED50) in the presence of the antagonist divided by the ED50 in the absence of the antagonist. Calculations were performed with the aid of a computer and a digital plotter.

| Compound | inhibition at 1 µM [1] | inhibition at 3 µM [1] | inhibition at 0.3 µM [1] | also measured |
| --- | --- | --- | --- | --- |
| CCCc1c(OCCCCCC(=O)O)ccc(Cl)c1Cl [Example 1, 6-(2-Propyl-3,4-dichlorophenoxy)hexanoic acid] | 51% | 78% |  |  |
| CCCc1c(OCCCCc2nnn[nH]2)ccc(Cl)c1Cl [Example 2, 5-[4-(2-Propyl-3,4-dichlorophenoxy)butyl]-tetrazole] | 94% |  | 70% | inhibition at 0.1 µM [1]: 56%; Kb [2]: 100 nM |
| CCCc1c(OCCCCCc2nnn[nH]2)ccc(Cl)c1Cl [Example 3, 5-[5-(2-Propyl-3,4-dichlorophenoxy)pentyl]-tetrazole] | 75% | 92% | 51% | Kb ([2]; *estimated): 251 nM |
| CCCc1c(OCCCCCCc2nn[nH]n2)ccc(Cl)c1Cl [Example 4, 5-[6-(2-Propyl-3,4-dichlorophenoxy)hexyl]-tetrazole] | 84% | 96% |  | pA2 ([2]; *estimated): 7.0 |
| CCCc1c(OCCCCc2nnn[nH]2)ccc(C(C)=O)c1Cl [Example 5, 5-[4-(2-Propyl-3-chloro-4-acetylphenoxy)butyl]-tetrazole] |  |  | 73% | inhibition at 0.1 µM [1]: 49%; Kb ([2]; *estimated): 105 nM |
| CCCCCCCCc1c(OCCCCCCc2nnn[nH]2)ccc(Cl)c1Cl [Example 6, 5-[6-(2-Octyl-3,4-dichlorophenoxy)hexyl]-tetrazole] | 53% | 59% |  |  |
| CCCCCCCCCCCCc1c(OCCCCCc2nnn[nH]2)ccc(Cl)c1Cl [Example 7, 5-[5-(2-Dodecyl-3,4-dichlorophenoxy)pentyl]tetrazole] |  | 16% |  |  |
| CCCc1c(OCCCSc2nn[nH]n2)ccc(Cl)c1Cl [Example 8, 5-[3-(2-Propyl1-3,4-dichlorophenoxy)propanethio]-tetrazole] |  |  | 79% | inhibition at 0.1 µM [1]: 59% |
| CCCCCc1c(OCCCCCC(=O)O)ccc(Cl)c1Cl [Example 9, 6-(2-Pentyl-3,4-dichlorophenoxy)hexanoic acid] | 21% | 57% |  |  |
| O=C(O)CCCCCOc1ccc(Cl)c(Cl)c1CCO [Example 10, 6-[2-(2-Hydroxyethyl)-3,4-dichlorophenoxy]hexanoic acid] |  | 22% |  |  |
| CCCc1c(OCCCCc2nnn[nH]2)ccc(Cl)c1O [Example 11, 5-[4-(2-Propyl-3-hydroxy-4-chlorophenoxy)butyl]-tetrazole] |  | 20% |  | Kb ([2]; *estimated): 3160 nM |
| CCCc1c(OCCCCCCC(=O)O)ccc(Cl)c1Cl [Example 12, 7-(2-Propyl-3,4-dichlorophenoxy)heptanoic acid] |  | 31% |  |  |
